Source: patent US10479777B2, “Herbicidal azines” (BASF SE, priority 2013, dated 2019)

Key:
Test in all cases: greenhouse test, pre-emergence treatment
Type in all cases: in vivo
Settings in all cases: scale from 0 to 100
Setaria faberi = tested on: Setaria faberi
Description: (§1) The culture containers used were plastic flowerpots containing loamy sand with approximately 3.0% of humus as the substrate. The seeds of the test plants were sown separately for each species.
(§2) For the pre-emergence treatment, the active ingredients, which had been suspended or emulsified in water, were applied directly after sowing by means of finely distributing nozzles. The containers were irrigated gently to promote germination and growth and subsequently covered with transparent plastic hoods until the plants had rooted. This cover caused uniform germination of the test plants, unless this had been impaired by the active ingredients. For the post-emergence treatment, the test plants were first grown to a height of 3 to 15 cm, depending on the plant habit, and only then treated with the active ingredients which had been suspended or emulsified in water. For this purpose, the test plants were either sown directly and grown in the same containers, or they were first grown separately as seedlings and transplanted into the test containers a few days prior to treatment.
(§3) Depending on the species, the plants were kept at 10-25° C. or 20-35° C., respectively. The test period extended over 2 to 4 weeks. During this time, the plants were tended, and their response to the individual treatments was evaluated.
(§4) Evaluation was carried out using a scale from 0 to 100. 100 means no emergence of the plants, or complete destruction of at least the aerial moieties, and 0 means no damage, or normal course of growth. A moderate herbicidal activity is given at values of at least 60, a good herbicidal activity is given at values of at least 70, and a very good herbicidal activity is given at values of at least 85.
(§5) The plants used in the greenhouse experiments were of the following species: […]

Amaranthus retroflexus = tested on: Amaranthus retroflexus
Description: as §1, §2, §3, §4, §5

Abutilon theophrasti = tested on: Abutilon theophrasti
Description: as §1, §2, §3, §4, §5

Echinocloa crus-galli = tested on: Echinocloa crus-galli
Description: as §1, §2, §3, §4, §5

SMILES: CCC(C)(F)c1nc(N)nc(Nc2nc(F)c(F)cc2F)n1 (racemic) [Example 14]
- herbicidal activity (Setaria faberi; 62.5 g/ha): very good (a very good herbicidal activity is given at values of at least 85)
- herbicidal activity (Amaranthus retroflexus; 62.5 g/ha): very good (a very good herbicidal activity is given at values of at least 85)
- herbicidal activity (Abutilon theophrasti; 62.5 g/ha): very good (a very good herbicidal activity is given at values of at least 85)

SMILES: Nc1nc(Nc2nc(F)c(F)c(Cl)c2F)nc(C2(Cl)CCCC2)n1 [Example 11]
- herbicidal activity (Setaria faberi; 500 g/ha): very good (a very good herbicidal activity is given at values of at least 85)
- herbicidal activity (Amaranthus retroflexus; 500 g/ha): very good (a very good herbicidal activity is given at values of at least 85)
- herbicidal activity (Abutilon theophrasti; 500 g/ha): very good (a very good herbicidal activity is given at values of at least 85)

SMILES: Nc1nc(Nc2nc(F)c(F)c(Cl)c2F)nc(C2(F)CCCC2)n1 [Example 12]
- herbicidal activity (Echinocloa crus-galli; 125 g/ha): very good (a very good herbicidal activity is given at values of at least 85)
- herbicidal activity (Setaria faberi; 125 g/ha): very good (a very good herbicidal activity is given at values of at least 85)
- herbicidal activity (Amaranthus retroflexus; 125 g/ha): very good (a very good herbicidal activity is given at values of at least 85)

SMILES: CCC(C)(F)c1nc(N)nc(Nc2nc(F)c(F)c(Cl)c2F)n1 (centres unmarked) [Example 13]
- herbicidal activity (Echinocloa crus-galli; 62.5 g/ha): very good (a very good herbicidal activity is given at values of at least 85)
- herbicidal activity (Setaria faberi; 62.5 g/ha): very good (a very good herbicidal activity is given at values of at least 85)
- herbicidal activity (Amaranthus retroflexus; 62.5 g/ha): very good (a very good herbicidal activity is given at values of at least 85)

SMILES: Nc1nc(Nc2nc(F)c(F)c(Cl)c2F)nc(C2CCCC2)n1 [Example 17]
- herbicidal activity (Amaranthus retroflexus; 250 g/ha): good (a good herbicidal activity is given at values of at least 70)

SMILES: COC(C)(C)c1nc(N)nc(Nc2nc(F)c(F)c(Cl)c2F)n1 [Example 22]
- herbicidal activity (Amaranthus retroflexus; 250 g/ha): very good (a very good herbicidal activity is given at values of at least 85)

SMILES: Cc1c(F)c(F)nc(Nc2nc(N)nc(C(C)(C)F)n2)c1F [Example 29]
- herbicidal activity (Setaria faberi; 125 g/ha): very good (a very good herbicidal activity is given at values of at least 85)
- herbicidal activity (Amaranthus retroflexus; 125 g/ha): very good (a very good herbicidal activity is given at values of at least 85)
- herbicidal activity (Abutilon theophrasti; 125 g/ha): very good (a very good herbicidal activity is given at values of at least 85)

SMILES: CCC(F)(CC)c1nc(N)nc(Nc2nc(F)c(F)c(Cl)c2F)n1 [Example 30]
- herbicidal activity (Echinocloa crus-galli; 250 g/ha): very good (a very good herbicidal activity is given at values of at least 85)
- herbicidal activity (Setaria faberi; 250 g/ha): very good (a very good herbicidal activity is given at values of at least 85)
- herbicidal activity (Amaranthus retroflexus; 250 g/ha): very good (a very good herbicidal activity is given at values of at least 85)

SMILES: COc1c(F)c(F)nc(Nc2nc(N)nc(C(C)(C)F)n2)c1F [Example 31]
- herbicidal activity (Setaria faberi; 250 g/ha): very good (a very good herbicidal activity is given at values of at least 85)
- herbicidal activity (Amaranthus retroflexus; 250 g/ha): very good (a very good herbicidal activity is given at values of at least 85)
- herbicidal activity (Abutilon theophrasti; 250 g/ha): very good (a very good herbicidal activity is given at values of at least 85)

SMILES: CC(C)C(F)c1nc(N)nc(Nc2nc(F)c(F)c(Cl)c2F)n1 (centres unmarked) [Example 32]
- herbicidal activity (Echinocloa crus-galli; 125 g/ha): very good (a very good herbicidal activity is given at values of at least 85)
- herbicidal activity (Setaria faberi; 125 g/ha): very good (a very good herbicidal activity is given at values of at least 85)
- herbicidal activity (Amaranthus retroflexus; 125 g/ha): very good (a very good herbicidal activity is given at values of at least 85)

SMILES: CC(C)(F)c1nc(N)nc(Nc2c(F)ccnc2F)n1 [Example 48]
- herbicidal activity (Amaranthus retroflexus; 125 g/ha): very good (a very good herbicidal activity is given at values of at least 85)

SMILES: CCC(C)(F)c1nc(N)nc(Nc2c(F)c(F)nc(F)c2F)n1 (centres unmarked) [Example 52]
- herbicidal activity (Echinocloa crus-galli; 250 g/ha): very good (a very good herbicidal activity is given at values of at least 85)
- herbicidal activity (Amaranthus retroflexus; 250 g/ha): very good (a very good herbicidal activity is given at values of at least 85)
- herbicidal activity (Abutilon theophrasti; 250 g/ha): very good (a very good herbicidal activity is given at values of at least 85)

SMILES: CC(C)(C#N)c1nc(N)nc(Nc2c(F)c(F)nc(F)c2F)n1 [Example 57]
- herbicidal activity (Amaranthus retroflexus; 250 g/ha): very good (a very good herbicidal activity is given at values of at least 85)
- herbicidal activity (Abutilon theophrasti; 250 g/ha): very good (a very good herbicidal activity is given at values of at least 85)

SMILES: Nc1nc(Nc2c(F)c(F)nc(F)c2F)nc(C2(Cl)CCCC2)n1 [Example 58]
- herbicidal activity (Echinocloa crus-galli; 250 g/ha): very good (a very good herbicidal activity is given at values of at least 85)
- herbicidal activity (Setaria faberi; 250 g/ha): very good (a very good herbicidal activity is given at values of at least 85)
- herbicidal activity (Amaranthus retroflexus; 250 g/ha): very good (a very good herbicidal activity is given at values of at least 85)

SMILES: COC(C)c1nc(N)nc(Nc2c(F)c(F)nc(F)c2F)n1 (centres unmarked) [Example 61]
- herbicidal activity (Amaranthus retroflexus; 500 g/ha): very good (a very good herbicidal activity is given at values of at least 85)
- herbicidal activity (Abutilon theophrasti; 500 g/ha): very good (a very good herbicidal activity is given at values of at least 85)

SMILES: CC(C)(C)c1nc(N)nc(Nc2c(F)c(F)nc(F)c2F)n1 [Example 62]
- herbicidal activity (Setaria faberi; 250 g/ha): very good (a very good herbicidal activity is given at values of at least 85)
- herbicidal activity (Amaranthus retroflexus; 250 g/ha): very good (a very good herbicidal activity is given at values of at least 85)
- herbicidal activity (Abutilon theophrasti; 250 g/ha): very good (a very good herbicidal activity is given at values of at least 85)

SMILES: CCC(F)c1nc(N)nc(Nc2c(F)c(F)nc(F)c2F)n1 (centres unmarked) [Example 63]
- herbicidal activity (Setaria faberi; 125 g/ha): very good (a very good herbicidal activity is given at values of at least 85)
- herbicidal activity (Amaranthus retroflexus; 125 g/ha): very good (a very good herbicidal activity is given at values of at least 85)
- herbicidal activity (Abutilon theophrasti; 125 g/ha): very good (a very good herbicidal activity is given at values of at least 85)

SMILES: CC1CCC(c2nc(N)nc(Nc3c(F)c(F)nc(F)c3F)n2)CC1 (centres unmarked) [Example 64]
- herbicidal activity (Setaria faberi; 250 g/ha): very good (a very good herbicidal activity is given at values of at least 85)
- herbicidal activity (Amaranthus retroflexus; 250 g/ha): very good (a very good herbicidal activity is given at values of at least 85)
- herbicidal activity (Abutilon theophrasti; 250 g/ha): very good (a very good herbicidal activity is given at values of at least 85)

SMILES: Nc1nc(Nc2c(F)c(F)nc(F)c2F)nc(C2(F)CCCC2)n1 [Example 66]
- herbicidal activity (Setaria faberi; 250 g/ha): very good (a very good herbicidal activity is given at values of at least 85)
- herbicidal activity (Amaranthus retroflexus; 250 g/ha): very good (a very good herbicidal activity is given at values of at least 85)
- herbicidal activity (Abutilon theophrasti; 250 g/ha): very good (a very good herbicidal activity is given at values of at least 85)

SMILES: CC1(c2nc(N)nc(Nc3c(F)c(F)nc(F)c3F)n2)CCCC1 [Example 67]
- herbicidal activity (Amaranthus retroflexus; 250 g/ha): very good (a very good herbicidal activity is given at values of at least 85)

SMILES: CC1(c2nc(N)nc(Nc3c(F)c(F)nc(F)c3F)n2)CCCCC1 [Example 68]
- herbicidal activity (Amaranthus retroflexus; 250 g/ha): very good (a very good herbicidal activity is given at values of at least 85)

SMILES: CCC(C)c1nc(N)nc(Nc2c(F)c(F)nc(F)c2F)n1 (centres unmarked) [Example 69]
- herbicidal activity (Amaranthus retroflexus; 125 g/ha): very good (a very good herbicidal activity is given at values of at least 85)
- herbicidal activity (Abutilon theophrasti; 125 g/ha): very good (a very good herbicidal activity is given at values of at least 85)

SMILES: CCC(F)(CC)c1nc(N)nc(Nc2c(F)c(F)nc(F)c2F)n1 [Example 71]
- herbicidal activity (Setaria faberi; 250 g/ha): very good (a very good herbicidal activity is given at values of at least 85)
- herbicidal activity (Amaranthus retroflexus; 250 g/ha): very good (a very good herbicidal activity is given at values of at least 85)
- herbicidal activity (Abutilon theophrasti; 250 g/ha): very good (a very good herbicidal activity is given at values of at least 85)
